pIC50: −log10 of the molar value.
How the values were obtained:
Assay type in all cases: biochemical
[1] = target: HDAC1 (Homo sapiens (Human), UniProt Q13547); assay: HDAC enzyme assay, HDAC1
Experimental: (§1) Compounds for testing were diluted in DMSO to 50 fold the final concentration and a ten point three fold dilution series was made. The compounds were diluted in assay buffer (50 mM HEPES, pH 7.4, 100 mM KCl, 0.001% Tween-20, 0.05% BSA, 20 μM TCEP) to 6 fold their final concentration. The HDAC enzymes (purchased from BPS Biosciences) were diluted to 1.5 fold their final concentration in assay buffer. The tripeptide substrate and trypsin at 0.05 μM final concentration were diluted in assay buffer at 6 fold their final concentration. The final enzyme concentrations used in these assays were 3.3 ng/ml (HDAC1), 0.2 ng/ml (HDAC2), 0.08 ng/ml (HDAC3) and 2 ng/ml (HDAC6). The final substrate concentrations used were 16 μM (HDAC1), 10 μM (HDAC2), 17 μM (HDAC3) and 14 μM (HDAC6).
(§2) Five μl of compounds and 20 μl of enzyme were added to wells of a black, opaque 384 well plate in duplicate. Enzyme and compound were incubated together at room temperature for 10 minutes. Five μ1 of substrate was added to each well, the plate was shaken for 60 seconds and placed into a Victor 2 microtiter plate reader. The development of fluorescence was monitored for 60 min and the linear rate of the reaction was calculated. The IC50 was determined using Graph Pad Prism by a four parameter curve fit.

[2] = target: HDAC6 (Homo sapiens (Human), UniProt Q9UBN7); assay: HDAC enzyme assay, HDAC6
HDAC6, sequence (Q9UBN7 whole entry): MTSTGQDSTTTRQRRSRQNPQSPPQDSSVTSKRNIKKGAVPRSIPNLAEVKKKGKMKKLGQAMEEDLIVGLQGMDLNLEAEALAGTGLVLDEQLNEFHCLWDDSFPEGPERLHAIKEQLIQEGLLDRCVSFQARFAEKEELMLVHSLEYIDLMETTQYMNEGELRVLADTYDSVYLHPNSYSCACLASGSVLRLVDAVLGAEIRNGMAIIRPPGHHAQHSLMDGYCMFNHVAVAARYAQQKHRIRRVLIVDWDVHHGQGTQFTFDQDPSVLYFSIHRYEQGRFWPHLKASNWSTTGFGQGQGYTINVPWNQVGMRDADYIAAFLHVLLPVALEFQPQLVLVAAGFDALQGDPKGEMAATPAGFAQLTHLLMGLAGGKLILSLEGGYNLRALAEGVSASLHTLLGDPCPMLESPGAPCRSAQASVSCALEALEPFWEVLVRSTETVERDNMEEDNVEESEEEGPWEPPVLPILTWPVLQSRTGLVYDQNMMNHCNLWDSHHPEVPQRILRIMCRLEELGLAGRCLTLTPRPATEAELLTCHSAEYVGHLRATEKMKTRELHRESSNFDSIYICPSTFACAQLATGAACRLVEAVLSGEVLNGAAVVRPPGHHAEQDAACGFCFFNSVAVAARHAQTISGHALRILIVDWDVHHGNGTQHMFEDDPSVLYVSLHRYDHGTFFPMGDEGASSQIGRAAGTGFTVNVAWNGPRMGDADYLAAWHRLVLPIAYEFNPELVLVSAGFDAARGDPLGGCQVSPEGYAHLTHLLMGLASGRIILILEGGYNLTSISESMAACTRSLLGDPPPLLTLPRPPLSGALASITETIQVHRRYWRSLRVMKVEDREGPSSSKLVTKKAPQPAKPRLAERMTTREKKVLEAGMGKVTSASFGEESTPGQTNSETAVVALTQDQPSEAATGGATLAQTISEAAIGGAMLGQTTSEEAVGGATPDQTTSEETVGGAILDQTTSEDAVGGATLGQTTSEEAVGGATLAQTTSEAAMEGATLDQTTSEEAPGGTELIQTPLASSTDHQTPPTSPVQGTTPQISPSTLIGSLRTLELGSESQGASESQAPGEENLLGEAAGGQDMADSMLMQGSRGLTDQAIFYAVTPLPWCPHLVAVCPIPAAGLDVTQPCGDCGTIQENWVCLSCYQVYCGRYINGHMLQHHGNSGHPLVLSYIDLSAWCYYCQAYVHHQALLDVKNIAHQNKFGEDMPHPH
Experimental: as §1
as §2, with “fit. The IC50 values obtained for several of the compounds of this invention are found in Table 1.” for “fit.”

[3] = target: HDAC2 (Homo sapiens (Human), UniProt Q92769); assay: HDAC enzyme assay, HDAC2
HDAC2, sequence (Q92769 whole entry): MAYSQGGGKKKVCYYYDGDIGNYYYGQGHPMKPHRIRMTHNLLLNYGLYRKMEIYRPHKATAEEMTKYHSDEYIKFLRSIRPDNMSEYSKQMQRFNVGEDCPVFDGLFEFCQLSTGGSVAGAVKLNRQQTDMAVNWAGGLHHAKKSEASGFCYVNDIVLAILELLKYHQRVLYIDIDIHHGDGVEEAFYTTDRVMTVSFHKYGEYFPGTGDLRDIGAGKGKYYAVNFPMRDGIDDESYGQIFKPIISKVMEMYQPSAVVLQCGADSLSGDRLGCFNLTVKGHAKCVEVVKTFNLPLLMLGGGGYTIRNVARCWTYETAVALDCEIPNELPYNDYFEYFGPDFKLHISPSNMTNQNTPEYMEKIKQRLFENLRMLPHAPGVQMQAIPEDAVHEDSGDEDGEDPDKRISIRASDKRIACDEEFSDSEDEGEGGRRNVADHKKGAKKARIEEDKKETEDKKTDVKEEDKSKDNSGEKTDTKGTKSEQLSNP
Experimental: as §1, §2

[4] = target: HDAC3 (Homo sapiens (Human), UniProt O15379); assay: HDAC enzyme assay, HDAC3
HDAC3, sequence (O15379 whole entry): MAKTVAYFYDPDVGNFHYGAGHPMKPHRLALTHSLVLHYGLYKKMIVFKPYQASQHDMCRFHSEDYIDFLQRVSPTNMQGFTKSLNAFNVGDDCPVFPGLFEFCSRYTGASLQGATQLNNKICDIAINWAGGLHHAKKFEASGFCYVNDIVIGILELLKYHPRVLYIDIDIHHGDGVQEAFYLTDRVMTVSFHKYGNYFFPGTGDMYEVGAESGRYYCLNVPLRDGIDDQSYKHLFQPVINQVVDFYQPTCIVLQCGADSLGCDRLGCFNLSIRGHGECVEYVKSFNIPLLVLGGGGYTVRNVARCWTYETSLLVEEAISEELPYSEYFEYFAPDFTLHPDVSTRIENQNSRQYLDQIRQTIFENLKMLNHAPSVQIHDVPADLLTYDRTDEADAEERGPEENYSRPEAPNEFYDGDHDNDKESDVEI
HDAC3, sequence (Q9Y618 395-489 partner): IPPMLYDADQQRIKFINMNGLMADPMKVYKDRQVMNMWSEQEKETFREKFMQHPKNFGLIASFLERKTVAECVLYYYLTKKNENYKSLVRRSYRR
Experimental: as §1, with “The HDAC enzymes (purchased from BPS Biosciences) were diluted to 1.5 fold their final concentration in assay buffer.” left out, “(HDAC6).” for “(HDAC6). The final substrate concentrations used were 16 μM (HDAC1), 10 μM (HDAC2), 17 μM (HDAC3) and 14 μM (HDAC6).”
as §2

HDAC1, sequence (Q13547 whole entry): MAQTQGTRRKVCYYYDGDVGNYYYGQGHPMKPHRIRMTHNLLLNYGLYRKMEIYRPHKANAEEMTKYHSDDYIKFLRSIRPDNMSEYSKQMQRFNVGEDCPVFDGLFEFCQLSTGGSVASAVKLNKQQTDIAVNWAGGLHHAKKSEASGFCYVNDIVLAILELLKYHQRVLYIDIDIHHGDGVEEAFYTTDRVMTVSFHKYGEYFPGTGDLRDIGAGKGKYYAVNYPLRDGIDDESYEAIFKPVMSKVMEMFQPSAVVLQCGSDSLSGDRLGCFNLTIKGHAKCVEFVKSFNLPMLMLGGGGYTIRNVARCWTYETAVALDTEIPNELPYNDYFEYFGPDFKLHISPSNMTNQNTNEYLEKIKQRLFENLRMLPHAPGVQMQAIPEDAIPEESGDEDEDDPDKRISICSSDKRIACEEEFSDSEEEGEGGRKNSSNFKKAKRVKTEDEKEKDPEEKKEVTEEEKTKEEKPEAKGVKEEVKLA

Row | Structure (SMILES) | pIC50 [1] | pIC50 [2] | pIC50 [3] | pIC50 [4]
1 | CC(C)C[C@H](C(=O)N1CCC(Nc2ncc(C(=O)NO)cn2)(c2ccccc2)CC1)c1ccccc1 (stereo in doubt) [Compound 029, N-hydroxy-2-((1-(4-methyl-2-phenylpentanoyl)-4-phenylpiperidin-4-yl)amino)pyrimidine-5-carboxamide] | 6.99 | 7.96 | 7.03 | 6.04
2 | CC(C)C[C@@H](C(=O)N1CCC(Nc2ncc(C(=O)NO)cn2)(c2ccccc2)CC1)c1ccccc1 (stereo in doubt) [Compound 030, N-hydroxy-2-((1-(4-methyl-2-phenylpentanoyl)-4-phenylpiperidin-4-yl)amino)pyrimidine-5-carboxamide] | 7.64 | 7.92 | 7.66 | 6.94
3 | CC(C)[C@@H](C(=O)N1CCC(Nc2ncc(C(=O)NO)cn2)(c2ccccc2)CC1)c1ccccc1 (stereo in doubt) [Compound 025, N-hydroxy-2-((1-(3-methyl-2-phenylbutanoyl)-4-phenylpiperidin-4-yl)amino)pyrimidine-5-carboxamide] | 7.70 | 7.89 | 7.74 | 7.08
4 | O=C(NO)c1cnc(NC2(c3ccccc3)CCN(C(=O)Nc3ccccc3F)CC2)nc1 [Compound 010, 2-((1-((2-fluorophenyl)carbamoyl)-4-phenylpiperidin-4-yl)amino)-N-hydroxypyrimidine-5-carboxamide] | 7.74 | 8.77 | 7.57 | 6.08
5 | O=C(NO)c1cnc(NC2(c3ccccc3)CCN(C(=O)Nc3c(F)cccc3F)CC2)nc1 [Compound 024, 2-((1-((2,6-difluorophenyl)carbamoyl)-4-phenylpiperidin-4-yl)amino)-N-hydroxypyrimidine-5-carboxamide] | 7.66 | 8.43 | 7.66 | 6.12
6 | CCOC(=O)N1CCC(Nc2ncc(C(=O)NO)cn2)(c2ccccc2)CC1 [Compound 004, ethyl 4-((5-(hydroxycarbamoyl)pyrimidin-2-yl)amino)-4-phenylpiperidine-1-carboxylate] | 6.56 | 8.54 | 6.49 | 6.00
7 | COc1ccc(NC(=O)N2CCC(Nc3ncc(C(=O)NO)cn3)(c3ccccc3)CC2)cc1 [Compound 008, N-hydroxy-2-((1-((4-methoxyphenyl)carbamoyl)-4-phenylpiperidin-4-yl)amino)pyrimidine-5-carboxamide] | 7.68 | 8.82 | 7.62 | 6.26
8 | CCOC(=O)N1CCC(Nc2ncc(C(=O)NO)cn2)(C(C)C)CC1 [Compound 006, ethyl 4-((5-(hydroxycarbamoyl)pyrimidin-2-yl)amino)-4-isopropylpiperidine-1-carboxylate] | 6.16 | 8.40 | 6.09 | 5.42
9 | O=C(NO)c1cnc(NC2(c3ccccc3)CCN(c3ccccc3)CC2)nc1 [Compound 009, 2-((1,4-diphenylpiperidin-4-yl)amino)-N-hydroxypyrimidine-5-carboxamide] | 6.45 | 8.68 | 6.42 | 5.75
10 | O=C(NO)c1cnc(NC2(c3ccccc3)CCN(S(=O)(=O)c3ccc(C(F)(F)F)cc3)CC2)nc1 [Compound 022, N-hydroxy-2-((4-phenyl-1-((4-(trifluoromethyl)phenyl)sulfonyl)piperidin-4-yl)amino)pyrimidine-5-carboxamide] | 6.15 | 8.14 | 6.11 | 5.57
11 | O=C(NO)c1cnc(NC2(c3ccccc3)CCN(S(=O)(=O)c3ccc(Cl)cc3)CC2)nc1 [Compound 019, 2-((1-((4-chlorophenyl)sulfonyl)-4-phenylpiperidin-4-yl)amino)-N-hydroxypyrimidine-5-carboxamide] | 6.07 | 8.30 | 6.01 | 5.50
12 | CC(C)C1(Nc2ncc(C(=O)NO)cn2)CCN(C(=O)OCc2ccccc2)CC1 [Compound 007, benzyl 4-((5-(hydroxycarbamoyl)pyrimidin-2-yl)amino)-4-isopropylpiperidine-1-carboxylate] | 6.92 | 8.29 | 6.92 | 6.06
13 | O=C(NO)c1cnc(NC2(c3ccccc3)CCN(S(=O)(=O)c3ccccc3)CC2)nc1 [Compound 023, N-hydroxy-2-((4-phenyl-1-(phenylsulfonyl)piperidin-4-yl)amino)pyrimidine-5-carboxamide] | 6.07 | 8.34 | 6.08 | 5.45
14 | Cc1ccc(NC(=O)N2CCC(Nc3ncc(C(=O)NO)cn3)(c3ccccc3)CC2)cc1 [Compound 015, N-hydroxy-2-((4-phenyl-1-(p-tolylcarbamoyl)piperidin-4-yl)amino)pyrimidine-5-carboxamide] | 7.47 | 8.70 | 7.34 | 6.16
15 | Cc1ccc(S(=O)(=O)N2CCC(Nc3ncc(C(=O)NO)cn3)(c3ccccc3)CC2)cc1 [Compound 021, N-hydroxy-2-((4-phenyl-1-tosylpiperidin-4-yl)amino)pyrimidine-5-carboxamide] | 6.24 | 8.35 | 6.19 | 5.60
16 | O=C(NO)c1cnc(NC2(c3ccccc3)CCN(C(=O)Cc3cc4ccccc4[nH]3)CC2)nc1 [Compound 031, 2-((1-(2-(1H-indol-2-yl)acetyl)-4-phenylpiperidin-4-yl)amino)-N-hydroxypyrimidine-5-carboxamide] | 8.00 | 8.30 | 8.05 | 7.38
17 | CN(C(=O)N1CCC(Nc2ncc(C(=O)NO)cn2)(c2ccccc2)CC1)c1ccccc1 [Compound 012, N-hydroxy-2-((1-(methyl(phenyl)carbamoyl)-4-phenylpiperidin-4-yl)amino)pyrimidine-5-carboxamide] | 6.58 | 8.66 | 6.42 | 5.79
18 | O=C(NO)c1cnc(NC2(c3ccccc3)CCN(S(=O)(=O)c3cccc(F)c3)CC2)nc1 [Compound 018, 2-((1-((3-fluorophenyl)sulfonyl)-4-phenylpiperidin-4-yl)amino)-N-hydroxypyrimidine-5-carboxamide] | 6.26 | 8.29 | 6.19 | 5.60
19 | O=C(NO)c1cnc(NC2(c3ccccc3)CCN(C(=O)Nc3ccc(F)cc3)CC2)nc1 [Compound 014, 2-((1-((4-fluorophenyl)carbamoyl)-4-phenylpiperidin-4-yl)amino)-N-hydroxypyrimidine-5-carboxamide] | 7.48 | 8.70 | 7.37 | 5.97
20 | O=C(NO)c1cnc(NC2(c3ccccc3)CCN(C(=O)Nc3cccc(F)c3)CC2)nc1 [Compound 013, 2-((1-((3-fluorophenyl)carbamoyl)-4-phenylpiperidin-4-yl)amino)-N-hydroxypyrimidine-5-carboxamide] | 7.30 | 8.60 | 7.13 | 5.97
21 | CC(=O)N1CCC(Nc2ncc(C(=O)NO)cn2)(C(C)C)CC1 [Compound 005, 2-((1-acetyl-4-isopropylpiperidin-4-yl)amino)-N-hydroxypyrimidine-5-carboxamide] | 5.74 | 8.23 | 5.62 | 5.09
22 | O=C(NO)c1cnc(NC2(c3ccccc3)CCN(C(=O)Cc3c[nH]c4ccccc34)CC2)nc1 [Compound 028, 2-((1-(2-(1H-indol-3-yl)acetyl)-4-phenylpiperidin-4-yl)amino)-N-hydroxypyrimidine-5-carboxamide] | 8.52 | 8.55 | 8.70 | 7.62
23 | Cc1ccccc1S(=O)(=O)N1CCC(Nc2ncc(C(=O)NO)cn2)(c2ccccc2)CC1 [Compound 020, N-hydroxy-2-((4-phenyl-1-(o-tolylsulfonyl)piperidin-4-yl)amino)pyrimidine-5-carboxamide] | 6.43 | 8.35 | 6.37 | 5.70
